In patent publication US20100120690A1, “Polypeptides Having Antimicrobial Activity and Polynucleotides Encoding Same” (Novozymes Adenium Biotech A/S, priority 2005, published 2010):

Legend:
Assay type in all cases: cell-based
[1] = system: panel of 6 different strains of Staphylococcus aureus; assay: Average MIC, NCCLS/CLSI guidelines using caMHB (Example 6); conditions: average over 6 S. aureus strains, duplicate; MIC above 32 counted as 64; read after 18-24 hours at 37° C.
Summary of the method: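 MICs were determined by broth dilution per NCCLS/CLSI in caMHB against six S. aureus strains (four MSSA, two MRSA), with peptides at 0.03–32 microgram/mL, read after 18-24 h at 37° C. Each was tested in duplicate and the two results averaged; MICs above 32 micrograms/mL were counted as 64.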

[2] = system: Staphylococcus aureus, ATCC 29213; assay: MIC, NCCLS/CLSI guidelines (Example 5), strain A; conditions: relative to wildtype Plectasin; average of two independent experiments
Procedure: (§1) Plectasin wild-type (SEQ ID NO: 1) and several variants of Plectasin were expressed and purified. The Minimal Inhibitory Concentration (MIC) was determined to test for their antimicrobial activity following the NCCLS guidelines from CLSI (Clinical and Laboratory Standards Institute; formerly known as National Committee for Clinical and Laboratory Standards).
(§2) The peptides were tested against the following strains: • A: Staphylococcus aureus, ATCC 29213; • B: Staphylococcus aureus, ATCC 25923; • C: Staphylococcus aureus, ATCC 29737; • D: Staphylococcus aureus, MRSA ST5 (2001), multi-resistant clinical human isolate from Statens Serum Institut, Denmark; • E: Staphylococcus aureus, MRSA ST80 (2003), multi-resistant clinical human isolate from Statens Serum Institut, Denmark.
(§3) All MIC values represent an average of two independent experiments; and all results in Table 5 are expressed relative to wildtype Plectasin:
(§4) 0: >100% of Plectasin wildtype MIC; 1: 80-100% of Plectasin wildtype MIC; 2: 50-80% of Plectasin wildtype MIC; 3: <50% of Plectasin wildtype MIC.

[3] = system: Staphylococcus carnosus ATCC51365; assay: Yeast screening assay: radial diffusion assay of yeast supernatants; parameters: key: An activity of 3 is better than Plectasin; An activity of 2 corresponds to the activity of Plectasin; 1 is worse than Plectasin; conditions: yeast supernatant, clearing zone in radial diffusion assay
Summary of the method: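 Supernatants from S. cerevisiae expressing plectasin variants, grown 3 days at 30 °C in galactose medium, were applied to agarose containing 5×10^5 cfu/mL S. carnosus. Plates were incubated 3 h at 37 °C, overlaid, left overnight and MTT-stained. Clearing zones were scored as 2 = plectasin-like, 3 = better, 1 = worse.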

[4] = system: Staphylococcus aureus, ATCC 29737; assay: MIC, NCCLS/CLSI guidelines (Example 5), strain C; conditions: relative to wildtype Plectasin; average of two independent experiments
Procedure: as §1, §2, §3, §4

[5] = system: Staphylococcus aureus, MRSA ST5 (2001); assay: MIC, NCCLS/CLSI guidelines (Example 5), strain D; conditions: relative to wildtype Plectasin; average of two independent experiments
Procedure: as §1, §2, §3, §4

[6] = system: Staphylococcus aureus, MRSA ST80 (2003); assay: MIC, NCCLS/CLSI guidelines (Example 5), strain E; conditions: relative to wildtype Plectasin; average of two independent experiments
Procedure: as §1, §2, §3, §4

[7] = system: Staphylococcus aureus, ATCC 25923; assay: MIC, NCCLS/CLSI guidelines (Example 5), strain B; conditions: relative to wildtype Plectasin; average of two independent experiments
Procedure: as §1, §2, §3, §4

Substance	Average MIC [1]	Relative MIC, strain A [2]	Activity (antimicrobial activity relative to the activity of plectasin) [3]	Relative MIC, strain C [4]	Relative MIC, strain D [5]	Relative MIC, strain E [6]	Relative MIC, strain B [7]
GFGCNGPWDEDDMRCHNHCRSIKGYKGGYCAKGGFVCKCY [Q14R + K20R]	3 micrograms/mL	3 (<50% of Plectasin wildtype MIC)	2	3 (<50% of Plectasin wildtype MIC)	3 (<50% of Plectasin wildtype MIC)	3 (<50% of Plectasin wildtype MIC)	3 (<50% of Plectasin wildtype MIC)
GFGCNGPWDEDDMRCHNHCKSIKGYRGGYCAKGGFVCRCY [Q14R + K26R + K38R]	2 micrograms/mL	3 (<50% of Plectasin wildtype MIC)	3	3 (<50% of Plectasin wildtype MIC)	3 (<50% of Plectasin wildtype MIC)	3 (<50% of Plectasin wildtype MIC)	3 (<50% of Plectasin wildtype MIC)
GFGCSGPWDEDDMRCHNHCKAIRGYKGGYCAKGGFVCKCY [N5S + Q14R + S21A + K23R]	9 micrograms/mL	1 (80-100% of Plectasin wildtype MIC)	3	2 (50-80% of Plectasin wildtype MIC)	2 (50-80% of Plectasin wildtype MIC)	0 (>100% of Plectasin wildtype MIC)	3 (<50% of Plectasin wildtype MIC)
D9N + Q14H + K38R: variant of Plectasin (SEQ ID NO: 1) (GFGCNGPWNEDDMHCHNHCKSIKGYKGGYCAKGGFVCRCY)	4 micrograms/mL	3 (<50% of Plectasin wildtype MIC)		3 (<50% of Plectasin wildtype MIC)	3 (<50% of Plectasin wildtype MIC)	2 (50-80% of Plectasin wildtype MIC)	3 (<50% of Plectasin wildtype MIC)
M13T + Q14K + K26R: variant of Plectasin (SEQ ID NO: 1) (GFGCNGPWDEDDTKCHNHCKSIKGYRGGYCAKGGFVCKCY)	7 micrograms/mL	1 (80-100% of Plectasin wildtype MIC)		3 (<50% of Plectasin wildtype MIC)	2 (50-80% of Plectasin wildtype MIC)	0 (>100% of Plectasin wildtype MIC)	3 (<50% of Plectasin wildtype MIC)
N5S + D9S: variant of Plectasin (SEQ ID NO: 1) (GFGCSGPWSEDDMQCHNHCKSIKGYKGGYCAKGGFVCKCY)	6 micrograms/mL	0 (>100% of Plectasin wildtype MIC)		3 (<50% of Plectasin wildtype MIC)	2 (50-80% of Plectasin wildtype MIC)	3 (<50% of Plectasin wildtype MIC)	3 (<50% of Plectasin wildtype MIC)
GFGCRGPWDEDDMQCHNHCKSIKGYKGGYCAKGGFVCKCY [Mutation N5R]	8 micrograms/mL	1 (80-100% of Plectasin wildtype MIC)	3	2 (50-80% of Plectasin wildtype MIC)	2 (50-80% of Plectasin wildtype MIC)	2 (50-80% of Plectasin wildtype MIC)	2 (50-80% of Plectasin wildtype MIC)
N5A + D9S + M13L + N17T: variant of Plectasin (SEQ ID NO: 1) (GFGCAGPWSEDDLQCHTHCKSIKGYKGGYCAKGGFVCKCY)	6 micrograms/mL	0 (>100% of Plectasin wildtype MIC)		3 (<50% of Plectasin wildtype MIC)	2 (50-80% of Plectasin wildtype MIC)	3 (<50% of Plectasin wildtype MIC)	3 (<50% of Plectasin wildtype MIC)
GFGCNGPWGEDDMRCHNHCKSIRGYKGGYCAKGGFVCKCY [D9G + Q14R + K23R]	2 micrograms/mL	3 (<50% of Plectasin wildtype MIC)	3	3 (<50% of Plectasin wildtype MIC)	3 (<50% of Plectasin wildtype MIC)	3 (<50% of Plectasin wildtype MIC)	3 (<50% of Plectasin wildtype MIC)
D9S + Q14L + K26R: variant of Plectasin (SEQ ID NO: 1) (GFGCNGPWSEDDMLCHNHCKSIKGYRGGYCAKGGFVCKCY)	3 micrograms/mL	3 (<50% of Plectasin wildtype MIC)		3 (<50% of Plectasin wildtype MIC)	3 (<50% of Plectasin wildtype MIC)	3 (<50% of Plectasin wildtype MIC)	3 (<50% of Plectasin wildtype MIC)
D9S + Q14K + V36L: variant of Plectasin (SEQ ID NO: 1) (GFGCNGPWSEDDMKCHNHCKSIKGYKGGYCAKGGFLCKCY)	1 micrograms/mL	3 (<50% of Plectasin wildtype MIC)		3 (<50% of Plectasin wildtype MIC)	3 (<50% of Plectasin wildtype MIC)	3 (<50% of Plectasin wildtype MIC)	3 (<50% of Plectasin wildtype MIC)
N5G + Q14K: variant of Plectasin (SEQ ID NO: 1) (GFGCGGPWDEDDMKCHNHCKSIKGYKGGYCAKGGFVCKCY)	9 micrograms/mL	2 (50-80% of Plectasin wildtype MIC)		3 (<50% of Plectasin wildtype MIC)	0 (>100% of Plectasin wildtype MIC)	2 (50-80% of Plectasin wildtype MIC)	2 (50-80% of Plectasin wildtype MIC)
D9A + K38R: variant of Plectasin (SEQ ID NO: 1) (GFGCNGPWAEDDMQCHNHCKSIKGYKGGYCAKGGFVCRCY)	4 micrograms/mL	3 (<50% of Plectasin wildtype MIC)		3 (<50% of Plectasin wildtype MIC)	3 (<50% of Plectasin wildtype MIC)	3 (<50% of Plectasin wildtype MIC)	3 (<50% of Plectasin wildtype MIC)
M13Y + Q14K + K26R: variant of Plectasin (SEQ ID NO: 1) (GFGCNGPWDEDDYKCHNHCKSIKGYRGGYCAKGGFVCKCY)	5 micrograms/mL	2 (50-80% of Plectasin wildtype MIC)		3 (<50% of Plectasin wildtype MIC)	3 (<50% of Plectasin wildtype MIC)	3 (<50% of Plectasin wildtype MIC)	3 (<50% of Plectasin wildtype MIC)
D9S + M13L + Q14H: variant of Plectasin (SEQ ID NO: 1) (GFGCNGPWSEDDLHCHNHCKSIKGYKGGYCAKGGFVCKCY)	3 micrograms/mL	3 (<50% of Plectasin wildtype MIC)		3 (<50% of Plectasin wildtype MIC)	3 (<50% of Plectasin wildtype MIC)	3 (<50% of Plectasin wildtype MIC)	3 (<50% of Plectasin wildtype MIC)
D9A + Q14H + K26R + V36L: variant of Plectasin (SEQ ID NO: 1) (GFGCNGPWAEDDMHCHNHCKSIKGYRGGYCAKGGFLCKCY)	1 micrograms/mL	3 (<50% of Plectasin wildtype MIC)		3 (<50% of Plectasin wildtype MIC)	3 (<50% of Plectasin wildtype MIC)	3 (<50% of Plectasin wildtype MIC)	3 (<50% of Plectasin wildtype MIC)
N5G + M13Y + N17K: variant of Plectasin (SEQ ID NO: 1) (GFGCGGPWDEDDYQCHKHCKSIKGYKGGYCAKGGFVCKCY)	5 micrograms/mL	3 (<50% of Plectasin wildtype MIC)		3 (<50% of Plectasin wildtype MIC)	3 (<50% of Plectasin wildtype MIC)	2 (50-80% of Plectasin wildtype MIC)	3 (<50% of Plectasin wildtype MIC)
